Measurements taken from ChEMBL document CHEMBL5233283, “Indole derivatives as tubulin polymerization inhibitors for the development of promising anticancer agents” (Bioorg Med Chem, 2021).

Tests used:
[1] = test system: NCI-H460; experiment: Cytotoxicity against human NCI-H460 cells assessed as cell growth inhibition; assay type: functional, cell-based
[2] = test system: KB; experiment: Cytotoxicity against human KB cells assessed as cell growth inhibition; assay type: functional, cell-based
[3] = test system: MKN-45; experiment: Cytotoxicity against human MKN-45 cells assessed as cell growth inhibition; assay type: functional, cell-based
[4] = test system: HT-29; experiment: Cytotoxicity against human HT-29 cells assessed as inhibition of cell growth; assay type: functional, cell-based
[5] = test system: MDA-MB-231; experiment: Cytotoxicity against human MDA-MB-231 cells assessed as inhibition of cell growth; assay type: functional, cell-based
[6] = test system: MCF7; experiment: Cytotoxicity against human MCF7 cells assessed as inhibition of cell growth; assay type: functional, cell-based
[7] = test system: A549; experiment: cells; settings: Homo sapiens
Description: Cytotoxicity against human A549 cells assessed as inhibition of cell growth

[8] = test system: HepG2; experiment: Cytotoxicity against human HepG2 cells assessed as inhibition of cell growth; assay type: functional, cell-based
[9] = test system: HeLa; experiment: Cytotoxicity against human HeLa cells assessed as inhibition of cell growth; assay type: functional, cell-based
[10] = Cytotoxicity against human […] cells assessed as inhibition of cell growth; assay type: functional, cell-based
[11] = test system: HCT-116; experiment: Cytotoxicity against human HCT-116 cells assessed as inhibition of cell growth; assay type: functional, cell-based
[12] = test system: Ishikawa; experiment: Cytotoxicity against human Ishikawa cells assessed as inhibition of cell growth; assay type: functional, cell-based
[13] = test system: NCI/ADR-RES; experiment: Cytotoxicity against human NCI-ADR-RES cells assessed as inhibition of cell growth; assay type: functional, cell-based
[14] = test system: PC-3; experiment: Cytotoxicity against human PC-3 cells assessed as inhibition of cell growth; assay type: functional, cell-based
[15] = test system: AGS; experiment: Cytotoxicity against human AGS cells assessed as inhibition of cell growth; assay type: functional, cell-based
[16] = Cytotoxicity against human CL1-5 cells assessed as inhibition of cell growth; assay type: functional, cell-based
[17] = test system: SH-SY5Y; experiment: Cytotoxicity against human SH-SY5Y cells assessed as cell growth inhibition; assay type: functional, cell-based
[18] = Cytotoxicity against human Neural progenitor cells assessed as cell growth inhibition; assay type: functional, cell-based
[19] = Cytotoxicity against human SCC-29B cells assessed as inhibition of cell growth; assay type: functional
[20] = test system: B16-F10; experiment: Cytotoxicity against mouse B16-F10 cells assessed as cell growth inhibition; assay type: functional, cell-based
[21] = test system: PA-1; experiment: Cytotoxicity against human PA-1 cells assessed as inhibition of cell growth; assay type: functional, cell-based
[22] = test system: RKO; experiment: Cytotoxicity against human RKO cells assessed as inhibition of cell growth; assay type: functional, cell-based

Row | IC50 [7] | SMILES | IC50 [6] | IC50 [8] | IC50 [9] | also measured
1 | – | COc1ccc(-n2ccc3cc(OC)c(OC)c(OC)c32)cc1O | – | – | – | IC50 [1]: 12.9 nM; IC50 [2]: 13.7 nM; IC50 [3]: 11.1 nM; IC50 [4]: 10.2 nM
2 | – | O=C1Nc2cc(Cl)ccc2/C1=C\c1c(-c2ccc(F)cc2)nc2ccccn12 | – | – | – | GI50 [5]: 950 nM; GI50 [6]: 430 nM
3 | 570 nM | N#Cc1c(-c2ccc(F)cc2Cl)cc(-c2c[nH]c3ccccc23)n2ccnc12 | – | – | – | IC50 [1]: 50 nM; IC50 [3]: 140 nM; IC50 [4]: 20 nM
4 | – | O=C(N/N=C/c1ccc(C(F)(F)F)cc1)c1[nH]c2ccc(Cl)cc2c1-c1ccccc1 | 420 nM | – | – | –
5 | 260 nM | COc1cc(C2=CN(C(N)=O)C(c3cn(C)c4ccc(Br)cc34)C2)cc(OC)c1OC (stereo unspecified) | 290 nM | 310 nM | 210 nM | –
6 | 35 nM | COc1cc(/C=C/c2ncc([N+](=O)[O-])n2CCOC(=O)c2c[nH]c3ccccc23)cc(OC)c1OC | 30 nM | 40 nM | – | –
7 | – | Oc1cccc(-n2cc(CSc3c[nH]c4ccccc34)nn2)c1 | 2370 nM | – | – | –
8 | – | COc1ccc(C(=O)/C=C/c2ccc3c(ccn3C)c2)c2ccccc12 | 820 nM | 650 nM | – | IC50 [11]: 1130 nM
9 | – | COC(=O)c1[nH]c2cc(OC)ccc2c1/C=C/C(=O)c1cc(OC)c(OC)c(OC)c1 | 170 nM | – | 370 nM | IC50 [4]: 160 nM
10 | – | COC(=O)c1c(Nc2cc(OC)c(OC)c(OC)c2)c2ccc(OC)cc2n1C | 110 nM | – | 110 nM | IC50 [4]: 110 nM
11 | – | O=C(CC#Cc1ccccc1)Oc1ccc2[nH]ccc2c1 | 3800 nM | – | 3200 nM | IC50 [5]: 9900 nM; IC50 [12]: 10100 nM
12 | 1430 nM | COc1ccc(S(=O)(=O)Nc2cccc3cc(-c4ccccc4)[nH]c23)cc1 | – | – | 200 nM | IC50 [13]: 150 nM; IC50 [14]: 110 nM; IC50 [15]: 250 nM; IC50 [4]: 130 nM; IC50 [16]: 450 nM
13 | – | COC(=O)c1[nH]c2ccc(OC)cc2c1Nc1cc(OC)c(OC)c(OC)c1 | 110 nM | – | 110 nM | IC50 [4]: 110 nM
14 | 4970 nM | CC(=O)c1ccc(C2=C(c3c(C)[nH]c4ccccc34)C(=O)N(C)C2=O)cc1 | – | – | – | IC50 [17]: 8480 nM; IC50 [18]: 1310 nM
15 | – | O=C(O)c1cccc(-n2cc(CSc3c[nH]c4ccccc34)nn2)c1 | 3520 nM | – | – | –
16 | – | COc1ccc(C(=O)/C=C/c2cn(C)c3ccc(C(=O)c4cc(OC)c(OC)c(OC)c4)cc23)cc1OC | – | – | – | GI50 [19]: 960 nM
17 | – | O=C(CC(c1ccc(F)cc1)c1c(-c2ccccc2)[nH]c2ccccc12)c1ccccc1 (stereo unspecified) | 10000 nM | – | – | IC50 [20]: 10000 nM
18 | – | N#Cc1ccc(/C=N/NC(=O)c2[nH]c3ccc(Cl)cc3c2-c2ccccc2)cc1 | 170 nM | – | – | –
19 | 300 nM | COc1cc(CSc2nnc(-c3cn(C)c4ccccc34)n2-c2ccccc2)cc(OC)c1OC | 380 nM | 300 nM | 150 nM | –
20 | – | O=C(N/N=C/c1c[nH]c2ccccc12)c1c[nH]c2ccccc12 | 5250 nM | 29700 nM | 1500 nM | IC50 [21]: 24700 nM; IC50 [5]: 8000 nM
21 | – | O=C(CC(c1ccccc1)c1c(-c2ccccc2)[nH]c2ccccc12)c1ccc(F)cc1 (stereo unspecified) | 10000 nM | – | – | IC50 [20]: 10000 nM

Row | SMILES | IC50 [7] | IC50 [6] | IC50 [8] | IC50 [9] | also measured
22 | COc1cc(/C=N/NC(=O)c2cn(Cc3ccccc3)c3ccccc23)cc(OC)c1OC | 80 nM | 640 nM | 630 nM | – | IC50 [10]: 35600 nM
23 | COc1cc(C(=O)c2cccc3[nH]ccc23)cc([Se]C)c1OC | 4 nM | – | 4 nM | 4 nM | IC50 [22]: 4 nM; IC50 [5]: 4 nM; IC50 [11]: 4 nM
